Results reported in paper PMC2551583, “Optimizing bioavailability of oral administration of small peptides through pharmacokinetic and pharmacodynamic parameters: The effect of water and timing of meal intake on oral delivery of Salmon Calcitonin” (BMC Clinical Pharmacology, 2008).

Experiment: Plasma sCT pharmacokinetics after a single dose, phase I crossover study
Type: in vivo, healthy postmenopausal women
Experimental: The study was a randomized, partially-blind, placebo-controlled, single dose, exploratory crossover study to assess the PK and PD of 0.8 mg SMC021 in healthy postmenopausal women when taken in the morning with different volumes of water (50 or 200 ml) and at different times before a meal (10, 30, or 60 minutes). Subjects were blinded to treatment with SMC021 and placebo, but were not blinded to water volume intake and pre-meal dosing time. The PK and PD profiles of Miacalcic® 200 IU NS were additionally assessed in an open-label manner in a small subset of subjects.
Females fulfilling the inclusion criteria of being generally healthy ambulatory female volunteers, aged between 40–70 years and having passed a natural or surgically-induced menopause at least 5 years before entering the study and being without diseases or medications known to affect bone metabolism were allowed to participate. The study was of a 5-period, 10-treatment, 56-sequence crossover design. Subjects were randomly allocated to a sequence. The study contained 10 possible treatments, comprising a combination of study medication of SMC021, placebo, and Miacalcic® NS), water volume given with the tablet (50/200 ml water, and dosing time to meal (10, 30 or 60 minutes pre-meal) as outlined in Table 1. To reduce the burden of treatment to the subjects, an incomplete cross-over design was used. […]
The concentration of plasma sCT was measured by as chemiluminescence-based assay that previously have been described. Values measured below the lower limit of quantification of 2.5 pg/ml was assigned the value of 2.5 pg/ml. […] The lower limit of quantification (LLOQ) was 2.5 pg/mL. The quality control (QC) samples, ranging from 2.5 pg/mL to 700 pg/mL, were prepared daily and measured in 3 to 5 replicates. The overall accuracy and precision (CV) of QC samples, measured on 11 different days was 101.3% and 10.1% for 2.5 pg/mL concentration and 94.3% and 6.0% for 700 pg/mL concentration, respectively. […]

salmon calcitonin [sCT]
time to maximum plasma sCT concentration after drug intake (minimal if any effect of water and meal time): approximately 15 minutes
fold sCT AUC0–4 with 50 ml of water versus nasal calcitonin (oral 0.8 mg with 50 ml water vs 200 IU nasal spray): 4 fold
fold higher absorption of sCT with 50 ml as compared with 200 ml of water (oral 0.8 mg, Cmax and AUC0–4, irrespective of meal timing (10, 30, 60 min)): two-fold increase
